Source: patent US20100168084A1, “Therapeutic compounds and related methods of use” (priority 2008, published 2010)

Target: T1, sirtuin protein (Homo sapiens, UniProt Q96EB6)
T1 sequence (Q96EB6 2-747 limits assumed): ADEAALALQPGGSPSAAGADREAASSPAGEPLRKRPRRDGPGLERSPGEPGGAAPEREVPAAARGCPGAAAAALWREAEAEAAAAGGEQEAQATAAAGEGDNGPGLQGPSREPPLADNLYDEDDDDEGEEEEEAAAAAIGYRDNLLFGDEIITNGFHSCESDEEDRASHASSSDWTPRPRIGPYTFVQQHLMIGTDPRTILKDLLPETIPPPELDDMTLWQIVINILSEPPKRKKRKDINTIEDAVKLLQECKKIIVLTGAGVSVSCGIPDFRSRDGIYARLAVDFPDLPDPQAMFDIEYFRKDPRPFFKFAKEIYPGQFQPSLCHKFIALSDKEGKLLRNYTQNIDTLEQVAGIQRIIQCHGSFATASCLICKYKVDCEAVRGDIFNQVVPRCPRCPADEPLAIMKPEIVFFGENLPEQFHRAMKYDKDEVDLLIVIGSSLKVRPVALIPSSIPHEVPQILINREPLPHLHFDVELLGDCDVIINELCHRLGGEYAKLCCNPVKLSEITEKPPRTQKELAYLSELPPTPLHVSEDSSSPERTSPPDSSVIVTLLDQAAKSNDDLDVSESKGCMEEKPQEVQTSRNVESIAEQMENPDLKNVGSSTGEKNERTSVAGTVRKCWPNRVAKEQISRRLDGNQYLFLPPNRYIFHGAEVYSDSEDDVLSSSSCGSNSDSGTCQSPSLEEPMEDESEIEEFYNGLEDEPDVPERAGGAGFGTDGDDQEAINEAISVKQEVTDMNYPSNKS
Test: MS assay (IC50 MS ASSAY / ED50 MS / FOLD ACTIVATION MS)
Type: biochemical
Design: scale not given here

[1] = Table 4, class symbols, legend not given
[2] = Table 4, class symbols A′, A, B, D, NA, legend not given
[3] = MS assay, class symbols A′, A, B, D, NA, legend not given

Measured: ED50 MS ASSAY

COc1cc(C(=O)Nc2ccccc2-c2cn3cc(CN(C)C)sc3n2)cc(OC)c1OC [Compound 179]
A′: TABLE 4 | Table 4 | [1] | class symbols, no key given

COc1ccc(C(=O)Nc2cccc(-c3nc4cccnc4[nH]3)c2)c(OC)c1OC [Compound 181]
A′: TABLE 4 | Table 4 | [1] | class symbols, no key given

COc1cc(C)ccc1C(=O)Nc1cccc(-c2nc3cccnc3[nH]2)c1 [Compound 182]
A′: TABLE 4 | Table 4 | [1] | class symbols, no key given

COc1ccc(C(=O)Nc2cccc(-c3nc4ncccc4[nH]3)c2)c(OC)c1 [Compound 184]
A′: TABLE 4 | Table 4 | [1] | class symbols, no key given

COc1ccc(C(=O)Nc2cccc(-c3nc4cccnc4[nH]3)c2)cc1OC [Compound 185]
A′: TABLE 4 | Table 4 | [1] | class symbols, no key given

COc1ccc(C(=O)Nc2ccc(-c3cc4cccnc4o3)cc2)c(OC)c1 [Compound 190]
A′: TABLE 4 | Table 4 | [1] | class symbols, no key given

COc1ccc(C(=O)Nc2cccc(-c3cc4cccnc4o3)c2)c(OC)c1 [Compound 191]
A′: TABLE 4 | Table 4 | [1] | class symbols, no key given

COc1cc(C)ccc1C(=O)Nc1cccc(-c2nc3ncccc3s2)c1 [Compound 199]
A′: TABLE 4 | Table 4 | [1] | class symbols, no key given

CN(C)c1cccc(C(=O)Nc2cccc(-c3nc4ncccc4s3)c2)c1 [Compound 200]
A′: TABLE 4 | Table 4 | [1] | class symbols, no key given

COc1ccc(C(=O)Nc2cccc(-c3nc4ncccc4s3)c2)c(OC)c1 [Compound 202]
A′: TABLE 4 | Table 4 | [1] | class symbols, no key given

COc1ccc(C(=O)Nc2ccccc2-c2cn3ccsc3n2)cc1OC [Compound 203]
A′: TABLE 4 | Table 4 | [1] | class symbols, no key given

COc1cc(C(=O)Nc2ccccc2-c2cn3ccsc3n2)cc(OC)c1OC [Compound 204]
A′: TABLE 4 | Table 4 | [1] | class symbols, no key given

COc1ccc(C(=O)Nc2cccc(-c3nc4ccccc4[nH]3)c2)c(OC)c1 [Compound 211]
A′: TABLE 4 | Table 4 | [1] | class symbols, no key given

COc1ccc(C(=O)Nc2cccc(-c3nc4cccnc4s3)c2)c(OC)c1 [Compound 213]
A′: TABLE 4 | Table 4 | [1] | class symbols, no key given

COc1cc(OC)cc(C(=O)Nc2cccc(-c3nc4cccnc4s3)c2)c1 [Compound 215]
A′: TABLE 4 | Table 4 | [1] | class symbols, no key given

COc1ccc(C(=O)Nc2cccc(-c3nc4cccnc4s3)c2)cc1 [Compound 216]
A′: TABLE 4 | Table 4 | [1] | class symbols, no key given

COc1cc(C(=O)Nc2cccc(-c3nc4cccnc4s3)c2)cc(OC)c1OC [Compound 217]
A′: TABLE 4 | Table 4 | [1] | class symbols, no key given

COc1cc(C(=O)Nc2cccc(-c3cn4cccnc4n3)c2)cc(OC)c1OC [Compound 218]
A′: Table 4 | [2] | class symbols, no key given

COc1ccc(C(=O)Nc2ccccc2-c2cc3ccccc3[nH]2)cc1OC [Compound 254]
A′: [3] | Table 4 | [2]

COc1cc(C(=O)Nc2ccccc2-c2cc3ccccc3[nH]2)cc(OC)c1OC [Compound 255]
A′: [3] | Table 4 | [2]

COc1cc(C(=O)Nc2cccc(-c3nc4ccccc4[nH]3)n2)cc(OC)c1OC [Compound 259]
A′: [3] | Table 4 | [2]

COc1ccc(C(=O)Nc2cccc(-c3nc4ccccc4[nH]3)n2)cc1OC [Compound 260]
A′: [3] | Table 4 | [2]

COc1ccc(C(=O)Nc2ccc(-c3nc4ccccc4[nH]3)cc2)c(OC)c1 [Compound 262]
A′: [3] | Table 4 | [2]

COc1ccc(C(=O)Nc2ccccc2-c2cn3ccccc3n2)cc1OC [Compound 266]
A′: [3] | Table 4 | [2]

COc1cc(C(=O)Nc2ccccc2-c2cn3ccccc3n2)cc(OC)c1OC [Compound 267]
A′: [3] | Table 4 | [2]

CN(C)c1cccc(C(=O)Nc2ccccc2-c2cn3ccccc3n2)c1 [Compound 268]
A′: [3] | Table 4 | [2]

COc1cc(C(=O)Nc2ccccc2-c2cn3cc(CN4CCNCC4)sc3n2)cc(OC)c1OC [Compound 271]
A′: [3] | Table 4 | [2]

COc1ccc(C(=O)Nc2cccc(-c3nc4cnccc4s3)c2)c(OC)c1 [Compound 272]
A′: [3] | Table 4 | [2]

COc1ccc(C(=O)Nc2ncccc2-c2nc3ccccc3[nH]2)cc1OC [Compound 276]
A′: [3] | Table 4 | [2]

COc1cc(C(=O)Nc2ccccc2-c2nc3ccccc3[nH]2)cc(OC)c1OC [Compound 293]
A′: [3] | Table 4 | [2]

COc1ccc(C(=O)Nc2ccc(-c3nc4ccccc4[nH]3)cc2)cc1OC [Compound 294]
A′: [3] | Table 4 | [2]

COc1ccc(C(=O)Nc2ccccc2-c2nc3cnccc3s2)c(OC)c1 [Compound 317]
A′: [3] | Table 4 | [2]

COc1cc(C(=O)Nc2ccccc2-c2nc3cnccc3s2)cc(OC)c1OC [Compound 319]
A′: [3] | Table 4 | [2]

CN(C)c1ccc(C(=O)Nc2ccccc2-c2nc3cnccc3s2)cc1 [Compound 320]
A′: [3] | Table 4 | [2]

CN(C)c1cccc(C(=O)Nc2ccccc2-c2nc3cnccc3s2)c1 [Compound 321]
A′: [3] | Table 4 | [2]

COc1cc(C(=O)Nc2ccc(-c3nc4ccncc4o3)cc2)cc(OC)c1OC [Compound 341]
A′: [3] | Table 4 | [2]

COc1cc(C(=O)Nc2ccc(-c3nc4cnccc4o3)cc2)cc(OC)c1OC [Compound 347]
A′: [3] | Table 4 | [2]

CN(C)c1cccc(C(=O)Nc2cccc(-c3nc4cnccc4s3)c2)c1 [Compound 402]
A′: [3] | Table 4 | [2]

CN(C)c1ccc(C(=O)Nc2cccc(-c3nc4cnccc4s3)c2)cc1 [Compound 403]
A′: [3] | Table 4 | [2]

COc1cc(OC)cc(C(=O)Nc2ccccc2-c2nc3cnccc3o2)c1 [Compound 404]
A′: [3] | Table 4 | [2]

COc1cc(C(=O)Nc2ccccc2-c2nc3cnccc3o2)cc(OC)c1OC [Compound 405]
A′: [3] | Table 4 | [2]

CN(C)c1cccc(C(=O)Nc2ccccc2-c2nc3cnccc3o2)c1 [Compound 406]
A′: [3] | Table 4 | [2]

CN(C)c1ccc(C(=O)Nc2ccccc2-c2nc3cnccc3o2)cc1 [Compound 407]
A′: [3] | Table 4 | [2]

COc1ccc(C(=O)Nc2ccc(-c3nc4cnccc4o3)s2)cc1OC [Compound 423]
A′: [3] | Table 4 | [2]

COc1cc(C(=O)Nc2ccc(-c3nc4cnccc4o3)s2)cc(OC)c1OC [Compound 426]
A′: [3] | Table 4 | [2]

CN(C)c1cccc(C(=O)Nc2ccc(-c3nc4cnccc4o3)s2)c1 [Compound 427]
A′: [3] | Table 4 | [2]
